Patent US9944598B2, “Mono- or di-substituted indole derivatives as dengue viral replication inhibitors” (priority 2014, dated 2018)

Experiments:
in vitro = type: cell-based; settings: African green monkey, CC50
Protocol: In parallel, the toxicity of the compounds was assessed on the same plates. Once the read-out for the eGFP signal was done, 10 μL of resazurin, a cell viability stain, was added to all wells of the 384-well plates. The resazurin assay is based on the reduction of the blue resazurin by NADH, produced by the cells, into the highly fluorescent product, resorufin. The formation of pink fluorescent resorufin is directly related to the number of viable cells in the well. The plates were incubated for an additional 5 hours in a fully humidified incubator (37° C., 5% CO2). Next, the plates were measured on an Infinite reader (Tecan) using an excitation wavelength of 530 nm. The half maximal cytotoxic concentration (CC50) was also determined, defined as the concentration required to reduce the resazurin conversion by 50% compared to that of the cell control wells (Table 1). Finally, the selectivity index (SI) is determined for the compounds, which is calculated as followed: SI=CC50/EC50.

[1] = system: DENV-4 strain EDEN (SG/06K2270DK1/2005); test: Tetravalent RT-qPCR assay Protocol A, serotype 4 EDEN; type: cell-based; settings: Dengue virus, DENV4, 72 h, RT-qPCR serotype 4 EDEN, Vero cells, 3 days
Protocol: The antiviral activity of the compounds of the invention was tested against DENV-1 strain TC974#666 (NCPV), DENV-2 strain 16681, DENV-3 strain H87 (NCPV) and DENV-4 strains H241 (NCPV) and EDEN (SG/06K2270DK1/2005; GenBank accession number QG398256) in a RT-qPCR assay. Therefore, Vero cells were infected with either DENV-1, or -2, or -3, or -4 in the presence or absence of test compounds. At day 3 post-infection, the cells were lysed and cell lysates were used to prepare cDNA of both a viral target (the 3′UTR of DENV; table 2) and a cellular reference gene (β-actin, table 2). Subsequently, a duplex real time PCR was performed on a Lightcycler480 instrument. The generated Cp value is inversely proportional to the amount of RNA expression of these targets. Inhibition of DENV replication by a test compound result in a shift of Cp's for the 3′UTR gene. On the other hand, if a test compound is toxic to the cells, a similar effect on β-actin expression will be observed. The comparative ΔΔCp method is used to calculate EC50, which is based on the relative gene expression of the target gene (3′UTR) normalized with the cellular housekeeping gene (β-actin). In addition, CC50 values were determined based on the Cp values acquired for the housekeeping gene β-actin.
The culture medium consisted of minimal essential medium supplemented with 2% of heat-inactivated fetal calf serum, 0.04% gentamycin (50 mg/mL) and 2 mM of L-glutamine. Vero cells, obtained from ECACC, were suspended in culture medium and 75 μL/well was added in 96-well plates (10000 cells/well), which already contain the antiviral compounds. Typically, these plates contain a 4-fold serial dilution of 9 dilution steps of the test compound at 200 times the final concentration in 100% DMSO (500 nL; final concentration range: 25 μM-0.00038 μM). In addition, each plate contains wells which are assigned as virus controls (containing cells and virus in the absence of compound) and cell controls (containing cells in the absence of virus and compound). Once the cells were added in the plates, the plates were incubated in a fully humidified incubator (37° C., 5% CO2) until the next day. Then, DENV-1 strain TC974#666, DENV-2 strain 16681, DENV-3 strain H87 or DENV-4 strains H241 or EDEN were added. […] In parallel, 25 μL of culture medium was added to the cell controls. Next, the plates were incubated for 3 days in a fully humidified incubator (37° C., 5% CO2). After 3 days, the supernatant was removed from the wells and the cells were washed twice with ice-cold PBS (˜100 μL). The cell pellets within the 96-well plates were stored at −80° C. for at least 1 day. Next, RNA was extracted using the Cells-to-CT™ lysis kit, according to the manufacture's guideline (Applied Biosystems). The cell lysates can be stored at −80° C. or immediately used in the reverse transcription step.
In preparation of the reverse transcription step, mix A (table 3A) was prepared and 7.57 μL/well was dispensed in a 96-well plate. After addition of 5 μL of the cell lysates, a five minute denaturation step at 75° C. was performed (table 3B). Afterwards, 7.43 μL of mix B was added (table 3C) and the reverse transcription step was initiated (table 3D) to generate cDNA.
Finally, a RT-qPCR mix was prepared, mix C (table 4A), dispensed in 96-well LightCycler qPCR plates to which 3 μL of cDNA was added and the qPCR was performed according to the conditions in table 4B on a LightCycler 480.
Using the LightCycler software and an in-house LIMS system, dose response curves for each compound were calculated and the half maximal effective concentration (EC50) and the half maximal cytotoxic concentration (CC50) were determined (Tables 6-9).

Row | Structure (SMILES) | CC50 (in vitro) [nM] | EC50 [1] [nM]
1 | COc1cc(NC(C(=O)c2c[nH]c3cc(OC)ccc23)c2ccc(Cl)cc2OC)cc(OCCO)c1 (single isomer, unassigned) [Compound 5A, 2-(4-chloro-2-methoxyphenyl)-2-((3-(2-hydroxyethoxy)-5-methoxyphenyl)amino)-1-(6-methoxy-1H-indol-3-yl)ethanone] | 5900 | 4.6
2 | COc1cc(NC(C(=O)c2c[nH]c3c(C)c(Cl)ccc23)c2ccc(Cl)cc2OC)cc(OCCO)c1 (single isomer, unassigned) [Compound 3A, 2-(4-chloro-2-methoxyphenyl)-1-(6-chloro-7-methyl-1H-indol-3-yl)-2-((3-(2-hydroxyethoxy)-5-methoxyphenyl)amino)ethanone] | 4500 | 2.9
3 | COc1cc(NC(C(=O)c2c[nH]c3cc(F)c(F)cc23)c2ccc(Cl)cc2OC)cc(OCCO)c1 (single isomer, unassigned) [Compound 9A, 2-(4-chloro-2-methoxyphenyl)-1-(5,6-difluoro-1H-indol-3-yl)-2-((3-(2-hydroxyethoxy)-5-methoxyphenyl)amino)ethanone] | 3900 | 4.7
4 | COc1cc(NC(C(=O)c2c[nH]c3cc(F)ccc23)c2ccc(Cl)cc2OC)cc(OCCO)c1 (single isomer, unassigned) [Compound 1A, 2-(4-chloro-2-methoxyphenyl)-1-(6-fluoro-1H-indol-3-yl)-2-((3-(2-hydroxyethoxy)-5-methoxyphenyl)amino)ethanone] | 4300 | 6.2
5 | COc1cc(NC(C(=O)c2c[nH]c3c(C)cc(F)cc23)c2ccc(Cl)cc2OC)cc(OCCO)c1 (single isomer, unassigned) [Compound 8A, 2-(4-chloro-2-methoxyphenyl)-1-(5-fluoro-7-methyl-1H-indol-3-yl)-2-((3-(2-hydroxyethoxy)-5-methoxyphenyl)amino)ethanone] | 4200 | 6.5
6 | COc1cc(NC(C(=O)c2c[nH]c3c(C)c(F)ccc23)c2ccc(Cl)cc2OC)cc(OCCO)c1 (single isomer, unassigned) [Compound 2A, 2-(4-chloro-2-methoxyphenyl)-1-(6-fluoro-7-methyl-1H-indol-3-yl)-2-((3-(2-hydroxyethoxy)-5-methoxyphenyl)amino)ethanone] | 4200 | 4.3
7 | COc1cc(NC(C(=O)c2c[nH]c3cc(OC)c(F)cc23)c2ccc(Cl)cc2OC)cc(OCCO)c1 (single isomer, unassigned) [Compound 7A, 2-(4-chloro-2-methoxyphenyl)-1-(5-fluoro-6-methoxy-1H-indol-3-yl)-2-((3-(2-hydroxyethoxy)-5-methoxyphenyl)amino)ethanone] | 6100 | 6.6
8 | COc1cc(NC(C(=O)c2c[nH]c3cc(OC)c(C)cc23)c2ccc(Cl)cc2OC)cc(OCCO)c1 (single isomer, unassigned) [Compound 6A, 2-(4-chloro-2-methoxyphenyl)-2-((3-(2-hydroxyethoxy)-5-methoxyphenyl)amino)-1-(6-methoxy-5-methyl-1H-indol-3-yl)ethanone] | 5100 | 2.9
9 | COc1cc(NC(C(=O)c2c[nH]c3cc(Cl)ccc23)c2ccc(Cl)cc2OC)cc(OCCO)c1 (single isomer, unassigned) [Compound 4A, 1-(6-chloro-1H-indol-3-yl)-2-(4-chloro-2-methoxyphenyl)-2-((3-(2-hydroxyethoxy)-5-methoxyphenyl)amino)ethanone] | 4900 | 5.2
10 | COc1cc(NC(C(=O)c2c[nH]c3c(F)cc(C)cc23)c2ccc(Cl)cc2OC)cc(OCCO)c1 (single isomer, unassigned) [Compound 10A, 2-(4-chloro-2-methoxyphenyl)-1-(7-fluoro-5-methyl-1H-indol-3-yl)-2-((3-(2-hydroxyethoxy)-5-methoxyphenyl)amino)ethanone] | 4500 | 8.6
11 | COc1cc(NC(C(=O)c2c[nH]c3c(F)c(F)ccc23)c2ccc(Cl)cc2OC)cc(OCCO)c1 (single isomer, unassigned) [Compound 11B, 2-(4-chloro-2-methoxyphenyl)-1-(6,7-difluoro-1H-indol-3-yl)-2-((3-(2-hydroxyethoxy)-5-methoxyphenyl)amino)ethanone] |  | 9.8
